Each structure is given as a SMILES string.

Here are results for 22 molecules from patent publication US9890139B2, “CYP17 inhibitors/antiandrogens” (Orion Corporation, priority 2013, dated 2018).

For one experiment, the target named is T1, full-length human AR (Homo sapiens, UniProt P10275).
T1 construct: expression vector encoding full-length human AR; expressed in transfected cells; host or cells: HEK293 (hAR/HEK293 cells)
T1 sequence (P10275 1-920): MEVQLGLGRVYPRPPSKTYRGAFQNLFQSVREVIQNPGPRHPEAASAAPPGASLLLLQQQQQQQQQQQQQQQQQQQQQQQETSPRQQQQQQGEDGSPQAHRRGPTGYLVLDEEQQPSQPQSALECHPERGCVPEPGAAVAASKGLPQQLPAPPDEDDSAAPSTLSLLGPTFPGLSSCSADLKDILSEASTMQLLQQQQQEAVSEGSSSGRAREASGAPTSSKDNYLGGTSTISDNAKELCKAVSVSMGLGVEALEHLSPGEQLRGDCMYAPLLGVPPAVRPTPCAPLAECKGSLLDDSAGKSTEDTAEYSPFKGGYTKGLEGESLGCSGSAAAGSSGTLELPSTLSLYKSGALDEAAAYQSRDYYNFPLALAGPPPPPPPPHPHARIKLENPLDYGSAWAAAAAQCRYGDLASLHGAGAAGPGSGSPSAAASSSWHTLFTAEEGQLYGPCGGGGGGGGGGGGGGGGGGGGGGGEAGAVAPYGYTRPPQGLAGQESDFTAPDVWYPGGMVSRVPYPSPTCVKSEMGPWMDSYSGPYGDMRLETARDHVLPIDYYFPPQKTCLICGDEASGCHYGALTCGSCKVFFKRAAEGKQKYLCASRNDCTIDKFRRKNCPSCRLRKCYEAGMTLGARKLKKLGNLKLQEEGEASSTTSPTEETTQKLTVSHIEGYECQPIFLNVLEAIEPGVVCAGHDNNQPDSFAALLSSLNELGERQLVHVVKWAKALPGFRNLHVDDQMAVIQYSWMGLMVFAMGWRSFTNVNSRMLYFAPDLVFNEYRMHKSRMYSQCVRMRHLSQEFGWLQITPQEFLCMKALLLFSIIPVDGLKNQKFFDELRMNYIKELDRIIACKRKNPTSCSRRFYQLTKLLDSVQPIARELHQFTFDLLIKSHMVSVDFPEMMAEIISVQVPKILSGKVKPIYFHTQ
In words: AR antagonism, reporter gene assay in hAR/HEK293 cells. The format is cell-based. Particulars: HEK293 cells stably transfected with full-length human AR and androgen responsive luciferase reporter; co-treated with submaximal testosterone (usually 0.45 nM); 1% DMSO; triplicates. The protocol:
Antagonism of test compounds for AR was measured by reporter gene assay in human embryonic kidney (HEK293) cells stably transfected with an expression vector encoding full-length human AR and androgen responsive luciferase reporter gene construct (hAR/HEK293 cells). To determine antagonism for hAR, the cells were treated simultaneously with increasing concentrations of the test compound and submaximal concentration of testosterone (usually 0.45 nM). The final DMSO concentration was 1%. All test compounds were studied in triplicates. The cells were incubated for […] before measurement of luciferase activity using Luciferase Assay System (Promega Corporation).
In general terms: A reporter such as luciferase makes a cellular process visible.
Consider `CCN(c1ccc(C#N)c(C(F)(F)F)c1)C1CCCC(n2ccnc2)C1` (single isomer, unassigned) [Ex. 72 cis-enantiomer 2, 4-((3-(1H-imidazol-1-yl)cyclohexyl)(ethyl)amino)-2-(trifluoromethyl)benzonitrile], for which the 50% inhibitory concentration (IC50) (in general, the midpoint of a concentration-inhibition curve) was determined as 27 nM.

`CCN(c1ccc(C#N)c(C(F)(F)F)c1)C1CCCC(O)(c2cccnc2)C1` (single isomer, unassigned) [Ex. 216 diastereomer 2, 4-(Ethyl(3-hydroxy-3-(pyridin-3-yl)cyclohexyl)amino)-2-(trifluoromethyl)-benzonitrile]: the concentration for half-maximal inhibition (IC50) turned out to be 28 nM.

As to `CN(c1ccc(C#N)c(C(F)(F)F)c1)C1C=C(c2cncs2)CCC1` (single isomer, unassigned) [Ex. 232 enantiomer 1, 4-(Methyl(3-(thiazol-5-yl)cyclohex-2-en-1-yl)amino)-2-(trifluoromethyl)-benzonitrile], the half-inhibitory concentration (IC50) was determined as 33 nM.

For `CCN(c1ccc(C#N)c(C(F)(F)F)c1)C1CC=C(c2cnco2)C1` (single isomer, unassigned) [Ex. 233 enantiomer 2, 4-(Ethyl(3-(oxazol-5-yl)cyclopent-3-enyl)amino)-2-(trifluoromethyl)benzonitrile], the IC50 came out at 29 nM.

Consider `CCN(c1ccc(C#N)c(Cl)c1)C1CCCC(c2cccnc2)C1` (single isomer, unassigned; diastereomer 2) [Ex. 76 cis-diastereomer, 2-Chloro-4-(ethyl(3-(pyridin-3-yl)cyclohexyl)amino)benzonitrile], for which the half-inhibitory concentration (IC50) is 1 nM.

`CCN(c1ccc(C#N)c(Cl)c1)C1CCCC(c2cncc(OC)c2)C1` (single isomer, unassigned; diastereomer 2) [Ex. 83 cis-diastereomer, 2-Chloro-4-(ethyl(3-(5-methoxypyridin-3-yl)cyclohexyl)amino)benzonitrile]: the IC50 worked out at 16 nM.

As for `CCN(c1ccc(C#N)c(C(F)(F)F)c1)C1CCCC(c2nnco2)C1` (single isomer, unassigned; diastereomer 4) [Ex. 19 cis-diastereomer, 4-((3-(1,3,4-Oxadiazol-2-yl)cyclohexyl)(ethyl)amino)-2-(trifluoromethyl)benzonitrile], the IC50 was found to be 65 nM.

Turning to `CCN(c1ccc(C#N)c(C(F)(F)F)c1)C1CCCC(n2cccn2)C1` (single isomer, unassigned; diastereomer 4) [Ex. 48 cis-diastereomer, 4-((-3-(1H-Pyrazol-1-yl)cyclohexyl)(ethyl)amino)-2-(trifluoromethyl)benzonitrile], the IC50 amounted to 24 nM.

`CCN(c1ccc(C#N)c(C(F)(F)F)c1)C1CCCC(c2nnn(C)n2)C1` (single isomer, unassigned; isomer 4) [Ex. 11 cis of 2,5-isomer, 4-(Ethyl(3-(2-methyl-2H-tetrazol-5-yl)cyclohexyl)amino)-2-(trifluoromethyl)benzonitrile]: the IC50 worked out at 26 nM.

In the case of `CCN(c1ccc(C#N)c(C(F)(F)F)c1)C1CCC=C(c2ccncc2)C1` (stereo not shown) [Ex. 77, 4-(Ethyl(3-(pyridin-4-yl)cyclohex-3-en-1-yl)amino)-2-(trifluoromethyl)benzonitrile], the IC50 is 40 nM.

For the molecule `CCN(c1cc(F)c(C#N)c(Cl)c1)C1CCC=C(c2cccnc2)C1` (stereo not shown) [Ex. 132, 2-Chloro-4-(ethyl(3-(pyridin-3-yl)cyclohex-3-en-1-yl)amino)-6-fluorobenzonitrile], the IC50 was 7 nM.

On to `CCN(c1ccc(C#N)c(C(F)(F)F)c1)C1C=C(n2cncn2)CCC1` (stereo not shown) [Ex. 210, 4-((3-(1H-1,2,4-triazol-1-yl)cyclohex-2-en-1-yl)(ethyl)amino)-2-(trifluoromethyl)benzonitrile], for which the IC50 stood at 23 nM.

In the case of `CCN(c1ccc(C#N)c(C(F)(F)F)c1)C1CCCC(n2ccnn2)C1` (stereo not drawn) [Ex. 223, 4-((3-(1H-1,2,3-triazol-1-yl)cyclohexyl)(ethyl)amino)-2-(trifluoromethyl)-benzonitrile (cis-diastereomer)], the 50% inhibitory concentration (IC50) stood at 79 nM.

On to `CN(c1ccc(C#N)c(C(F)(F)F)c1)[C@@H]1C=C(n2ccnc2)[C@@H](O)CC1(C)C` [Ex. 262, 4-(((1R,4S)-4-hydroxy-3-(1H-imidazol-1-yl)-6,6-dimethylcyclohex-2-en-1-yl)(methyl)-amino)-2-(trifluoromethyl)benzonitrile], for which the IC50 came out at 89 nM.

A further experiment deals with T2, 17,20 lyase (CYP17) (Homo sapiens, UniProt P05093).
T2 construct: endogenous in cells; host or cells: H295R human adrenocortical carcinoma cells
T2 sequence (P05093 1-508): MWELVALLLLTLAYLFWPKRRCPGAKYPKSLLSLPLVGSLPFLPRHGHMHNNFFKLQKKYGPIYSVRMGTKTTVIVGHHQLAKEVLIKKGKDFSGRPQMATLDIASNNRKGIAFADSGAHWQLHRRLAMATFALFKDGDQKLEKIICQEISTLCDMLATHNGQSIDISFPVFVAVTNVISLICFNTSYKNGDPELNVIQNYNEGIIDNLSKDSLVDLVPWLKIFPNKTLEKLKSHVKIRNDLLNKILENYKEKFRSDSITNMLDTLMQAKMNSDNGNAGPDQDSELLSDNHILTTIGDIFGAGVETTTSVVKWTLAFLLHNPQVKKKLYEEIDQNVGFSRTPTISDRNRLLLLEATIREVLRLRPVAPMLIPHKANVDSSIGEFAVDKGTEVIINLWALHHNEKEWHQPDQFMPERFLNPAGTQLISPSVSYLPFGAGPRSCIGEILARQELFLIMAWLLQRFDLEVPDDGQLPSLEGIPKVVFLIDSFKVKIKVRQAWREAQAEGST
In words: 17,20 lyase (CYP17) inhibition, acetic acid release assay (AARA) on H295R cells. It counts as cell-based. The note with it: human H295R adrenocortical carcinoma cells; overnight (16-19 h) with 17α-[21-3H]hydroxypregnenolone; 3H-acetic acid release; 1% DMSO; quadruplicates; read-out: CYP17 inhibition IC50. The procedure:
The ability of the test compounds to inhibit 17,20 lyase catalysed conversion of 17α-hydroxypregnenolone to dehydroepiandrosterone and acetic acid was measured by acetic acid release assay (AARA) on human H295R adrenocortical carcinoma cell line (Grigoryev, D. N. et al., Analytical Biochemistry 1999; 267:319-330). […] The final DMSO concentration was 1%. Cell culture medium was extracted with dextran-coated charcoal suspension (Isomaa, V. et al., Endocrinology 1982; 111(3):833-843). ^3H-acetic acid was determined by mixing 100 μl of supernatant fraction in 200 μl of scintillation fluid (OptiPhase SuperMix, Perkin Elmer). Radioactivity was measured using a Microbeta scintillation counter (1450 MicroBeta Trilux, Wallac). All the test compounds were studied in quadruplicates.
As to `CN(c1ccc(C#N)c(Cl)c1)C1CC(c2c[nH]cn2)=CCC1(C)C` (single isomer, unassigned) [Ex. 2 enantiomer 1, 4-((3-(1H-imidazol-4-yl)-6,6-dimethylcyclohex-3-enyl)(methyl)amino)-2-chlorobenzonitrile], the half-maximal inhibitory concentration (IC50) was found to be 27 nM.

`CN(c1ccc(C#N)c(C(F)(F)F)c1)C1C=C(n2ccnc2)CCC1` (single isomer, unassigned) [Ex. 6 enantiomer 1, 4-((3-(1H-imidazol-1-yl)cyclohex-2-enyl)(methyl)amino)-2-(trifluoromethyl)benzonitrile]: the IC50 came to 74 nM.

Turning to `CCN(c1ccc(C#N)c(C(F)F)c1)C1C=C(n2ccnc2)CCC1(C)C` (single isomer, unassigned) [Ex. 31 enantiomer 1, 4-((3-(1H-imidazol-1-yl)-6,6-dimethylcyclohex-2-enyl)(ethyl)amino)-2-(difluoromethyl)benzonitrile], the half-inhibitory concentration (IC50) was 23 nM.

Consider `CN(c1ccc(C#N)c(C(F)(F)F)c1)C1CC(n2ccnc2)CCC1(C)C` (single isomer, unassigned) [Ex. 47 cis-enantiomer 3, 4-((5-(1H-Imidazol-1-yl)-2,2-dimethylcyclohexyl)(methyl)amino)-2-(trifluoromethyl)benzonitrile], for which the half-maximal inhibitory concentration (IC50) was found to be 18 nM.

Consider `CN(c1ccc(C#N)c(C(F)(F)F)c1)C1C(O)C(c2c[nH]cn2)=CCC1(C)C` (single isomer, unassigned) [Ex. 245, 4-{[2-Hydroxy-3-(1H-imidazol-4-yl)-6,6-dimethylcyclohex-3-enyl](methyl)-amino}-2-(trifluoromethyl)benzonitrile], for which the IC50 stood at 97 nM.

Consider `CN(c1ccc(C#N)c(C(F)(F)F)c1)C1CC(c2c[nH]cn2)=CCC1(C)C` (single isomer, unassigned; diastereomer 1) [Ex. 244 diastereomer 1, 4-{[3-(1H-Imidazol-4-yl)-6,6-dimethylcyclohex-3-enyl](methyl)amino}-2-(trifluoromethyl)benzonitrile], for which the IC50 amounted to 116 nM.

In the case of `CCN(c1cc(F)c(C#N)c(F)c1)C1CCCC(n2ccnc2)C1` (single isomer, unassigned; diastereomer 4) [Ex. 12 cis-diastereomer], the concentration for half-maximal inhibition (IC50) was determined as 18 nM.

`CCN(c1ccc(C#N)c(C(F)(F)F)c1)C1CCC=C(c2cccnc2)C1(C)C` (stereo not shown) [Ex. 97, 4-((2,2-dimethyl-3-(pyridin-3-yl)cyclohex-3-en-1-yl)(ethyl)amino)-2-(trifluoromethyl)benzonitrile]: the IC50 was found to be 66 nM.
